The text below walks through data of patent US12410157B2, “Compound useful as toll-like receptor 7 activation inhibitor” (TOYAMA PREFECTURAL UNIVERSITY, priority 2020, dated 2025).

Several values for one entry are separate records, joined by “and”; a condition that tells them apart may be missing. Identical values can stand only once. Entries after “also recorded” stand apart in the source; their conditions may differ. Counter-ions that a name gives are not always drawn.

Experiment [1] has as its target T1, TLR7 (Mus musculus, UniProt P58681).
T1 construct: from tissue; host or cells: whole animal, C57BL/6N mice (serum IFN-α after R848)
T1 sequence (P58681 27-1050): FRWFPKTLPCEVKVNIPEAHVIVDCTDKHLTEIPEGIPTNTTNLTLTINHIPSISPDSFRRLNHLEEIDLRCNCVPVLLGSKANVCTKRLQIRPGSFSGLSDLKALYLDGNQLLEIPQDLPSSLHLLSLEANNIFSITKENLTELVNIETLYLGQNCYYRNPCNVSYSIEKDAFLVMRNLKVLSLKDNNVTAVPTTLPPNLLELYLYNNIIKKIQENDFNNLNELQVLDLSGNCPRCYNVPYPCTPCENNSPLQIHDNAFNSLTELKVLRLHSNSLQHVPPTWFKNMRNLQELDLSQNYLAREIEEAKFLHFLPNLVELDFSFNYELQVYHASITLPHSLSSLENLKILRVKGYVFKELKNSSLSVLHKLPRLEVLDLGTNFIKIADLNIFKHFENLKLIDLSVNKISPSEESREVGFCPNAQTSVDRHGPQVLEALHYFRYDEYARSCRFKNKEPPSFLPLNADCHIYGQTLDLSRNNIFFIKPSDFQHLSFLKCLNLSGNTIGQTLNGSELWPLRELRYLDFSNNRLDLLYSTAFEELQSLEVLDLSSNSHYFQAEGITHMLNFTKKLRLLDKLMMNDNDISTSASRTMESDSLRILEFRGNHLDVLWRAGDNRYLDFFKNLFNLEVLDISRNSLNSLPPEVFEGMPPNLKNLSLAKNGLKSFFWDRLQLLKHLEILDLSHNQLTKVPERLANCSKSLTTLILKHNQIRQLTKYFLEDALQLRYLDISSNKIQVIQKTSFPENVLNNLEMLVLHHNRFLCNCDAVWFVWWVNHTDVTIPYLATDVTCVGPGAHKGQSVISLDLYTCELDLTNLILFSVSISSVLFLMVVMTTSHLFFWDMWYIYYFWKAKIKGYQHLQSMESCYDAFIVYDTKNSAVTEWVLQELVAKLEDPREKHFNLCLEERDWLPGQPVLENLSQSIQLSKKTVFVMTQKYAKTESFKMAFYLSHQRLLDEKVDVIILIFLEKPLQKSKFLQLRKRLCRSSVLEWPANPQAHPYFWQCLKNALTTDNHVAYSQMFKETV
The experiment can be described thus: TLR7 inhibition (R848-induced serum IFN-α) by intraperitoneal administration in mice. The format is in vivo, mice (C57BL/6N). As to conditions: Example 13. As for the experimental part:
Normal mice (C57BL/6N, 11 weeks old, female) were administered B2-24-4-5A·HCOOH (1, 5, 10, 100 and 1000 μg) or hydroxychloroquine sulfate (HCQ, 1000 μg) as a comparison drug intraperitoneally, followed by 5 μg of R848 after 30 minutes. The solvent was saline solution. 1 hour after R848 administration, blood was collected and the concentration of IFN-α in the serum was quantified using ELISA (used kit: Mouse IFN alpha Platinum ELISA (trade name), eBioscience). The plots in FIG. 7 represent the data for each individual, each bold line represents the mean value of each group data, and each error bar represents the standard error of each group data.
The same method as in Example 13 was used to study the TLR7 inhibition effect of intraperitoneal administration of B2-24-4·HCl, B2-24-4-5A or B2-24-4-5A·HCOOH in mice. B2-24-4·HCl, B2-24-4-5A and B2-24-4-5A·HCOOH were administered at a dose of 10 μg. The plots in FIG. 8 represent the data for each individual, each bold line represents the mean of each group data, and each error bar represents the standard error of each group data.

The test system of experiment [2] is systemic lupus erythematosus model mice (NZBWF1). The experiment can be described thus: Therapeutic effect in mouse model of spontaneous systemic lupus erythematosus. The format is in vivo. As for the experimental part:
Systemic lupus erythematosus model mice (NZBWF1, 20 weeks old, female, n=55) were divided into saline-administered group (control, n=25), B2-24-4-5A·HCOOH-administered group (n=10), B2-24-4·HCOOH-administered group (n=5) and HCQ-administered group (n=15). The saline-administered group received saline (100 l) orally once a day, every day; the B2-24-4-5A·HCOOH-administered group received 10 mg/kg of B2-24-4-5A·HCOOH (100 l) orally once a day, every day; the B2-24-4·HCOOH-administered group received 10 mg/kg of B2-24-4·HCOOH (100 l) orally once a day, every day; the HCQ-administered group received 10 mg/kg of HCQ (100 l) orally once a day, every day. Fifteen weeks after the start of treatment, urine was collected from surviving mice in the saline-administered group (control, n=17), B2-24-4-5A·HCOOH-administered group (n=10), B2-24-4·HCOOH-administered group (n=5), and HCQ-administered group (n=12), and the mice were euthanized. After euthanasia, blood was drawn from the abdominal aorta of the mice, and the kidneys and spleen were removed.
Mice that died of natural causes during the 15-week period from the start of treatment were counted as deaths, and survival analysis was performed using the Kaplan Meier method. Blood collected from the abdominal aorta of each mouse, excluding the deceased cases, was centrifuged and serum was prepared. Determination of urea nitrogen and creatinine levels in serum was entrusted to Oriental Yeast Co. Albumin levels in urine were determined by ELISA (used kit: Levis Urinary Albumin-Mouse (S-type) (trade name) (Fujifilm Wako Shibayagi Corporation)). The removed kidneys were fixed with 4% (w/v) paraformaldehyde, and immunohistochemical staining was entrusted to Morpho Technology, Inc. In PAS-stained kidney tissue sections, histological findings of 100 glomeruli were evaluated. For increased cells and substrate in the mesangial area, endothelial cell swelling and cellular infiltration of the capillary lumen (intratubular proliferation), and glomeruli with inflammatory crescents (extratubular proliferation), each of the 100 glomeruli was assigned a grade from grade 0 to grade 2 according to severity and scored on a 6-point scale.
FIG. 10F is a photograph showing C3 deposition in the glomeruli of a mouse (#1) in the saline-administered group, a mouse (#10) in the B2-24-4-5A·HCOOH-administered group, a mouse (#4) in the B2-24-4·HCOOH-administered group and a mouse (#14) in the HCQ-administered group. […] In the renal tissue sections of a mouse (#1) in the saline-administered group, findings of active glomerulonephritis such as diffuse mesangial and intratubular proliferation were observed. […] The plots in FIGS. 10B, 10C, and 10D show the data for each individual, each bold line is the mean of the group data, and each error bar standard error. Scale bars in FIGS. 10E and 10F represent 100 μm. […]

For experiment [3], the target named is T2, TLR7 (Homo sapiens, UniProt Q9NYK1).
T2 construct: PBMCs were isolated from 7 mL of blood collected from patients with systemic lupus erythematosus; endogenous in cells; host or cells: PBMCs from patients with systemic lupus erythematosus
T2 sequence (Q9NYK1 27-1049): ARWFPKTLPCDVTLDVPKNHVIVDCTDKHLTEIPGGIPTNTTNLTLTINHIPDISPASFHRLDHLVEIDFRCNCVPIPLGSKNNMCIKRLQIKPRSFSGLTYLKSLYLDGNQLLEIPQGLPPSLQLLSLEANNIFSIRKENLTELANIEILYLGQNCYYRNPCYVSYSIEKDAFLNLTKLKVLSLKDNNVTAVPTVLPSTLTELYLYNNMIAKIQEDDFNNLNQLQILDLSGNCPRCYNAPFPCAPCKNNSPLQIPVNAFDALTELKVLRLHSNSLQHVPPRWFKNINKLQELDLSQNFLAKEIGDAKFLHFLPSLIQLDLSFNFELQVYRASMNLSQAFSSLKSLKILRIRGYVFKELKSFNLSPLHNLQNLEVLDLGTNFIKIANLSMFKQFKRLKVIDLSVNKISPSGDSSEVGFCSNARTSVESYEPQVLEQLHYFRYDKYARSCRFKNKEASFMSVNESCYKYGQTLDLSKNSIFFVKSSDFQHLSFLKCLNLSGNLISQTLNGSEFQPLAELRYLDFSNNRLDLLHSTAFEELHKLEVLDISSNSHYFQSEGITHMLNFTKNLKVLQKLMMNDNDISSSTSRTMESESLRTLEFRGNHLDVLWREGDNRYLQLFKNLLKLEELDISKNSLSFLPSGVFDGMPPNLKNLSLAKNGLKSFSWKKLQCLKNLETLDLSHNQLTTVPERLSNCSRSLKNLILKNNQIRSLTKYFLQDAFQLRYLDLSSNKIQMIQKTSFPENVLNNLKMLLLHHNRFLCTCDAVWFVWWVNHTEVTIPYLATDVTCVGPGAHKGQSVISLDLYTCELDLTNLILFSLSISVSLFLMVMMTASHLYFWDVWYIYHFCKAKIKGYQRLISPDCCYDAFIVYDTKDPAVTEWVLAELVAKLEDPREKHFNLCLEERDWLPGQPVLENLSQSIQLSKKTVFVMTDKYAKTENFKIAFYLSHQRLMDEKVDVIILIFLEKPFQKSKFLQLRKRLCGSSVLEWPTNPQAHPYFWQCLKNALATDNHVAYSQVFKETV
Kind of experiment: TLR7 inhibitory effect (IL-6) in PBMCs from patients with systemic lupus erythematosus. In kind it is cell-based. As to conditions: SLE patient PBMCs. As for the experimental part:
The TLR7 inhibitory effect of B2-24-4-5A·HCOOH on PBMCs derived from patients with systemic lupus erythematosus was studied. PBMCs were isolated from 7 mL of blood collected from patients with systemic lupus erythematosus. Isolated PBMCs were spread into each well of a 96-well plate containing RPMI 1640 medium containing 10% (v/v) fetal calf serum (FCS), penicillin, streptomycin, L-glutamic acid, and 2-mercaptoethanol at 0.5×10^5/100 μL and incubated at 37° C. in the presence of 5% (v/v) CO2. 50 μL of B2-24-4-5A·HCOOH, B2-24-4·HCl or the comparative drug hydroxychloroquine sulfate (HCQ) was added to each well to achieve a final concentration of 0.1 μM, 0.5 μM, 1 μM, 5 μM, 10 μM or 50 μM and incubated for 30 minutes. The TLR7 ligand, Gardiquimod (Invivogen), was added at a final concentration of 3 μg/mL and incubated for 24 hours. After incubation, all culture media were collected and the concentration of IL-6 in the culture medium was quantified using ELISA (used kit: human IL-6 DuoSet ELISA (trade name), manufactured by R&D Systems).

The target in experiment [4] is B lymphocyte stimulator (BLyS) (Homo sapiens, UniProt Q9Y275). As to conditions: after 52 weeks of intravenous administration (10 mg/kg); cited from earlier work.
Sequence of B lymphocyte stimulator (BLyS) (Q9Y275 134-285 limits assumed): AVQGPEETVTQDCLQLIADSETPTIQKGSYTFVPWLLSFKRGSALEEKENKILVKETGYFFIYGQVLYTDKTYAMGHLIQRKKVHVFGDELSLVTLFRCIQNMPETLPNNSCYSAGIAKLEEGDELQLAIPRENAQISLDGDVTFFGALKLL

`C=C(C)[C@@H]1CC[C@]2(COC(=O)C2)C[C@H]1c1ccc(CN2CCNCC2)cc1` [B2-24-4-5A]: the “Order of strength of the effect on IFN-α production” value in experiment [1] (10 μg, FIG. 8) is “stronger with B2-24-4-5A·HCOOH, B2-24-4-5A and B2-24-4·HCl in that order”. Besides, in experiment [1] (dose of 10 μg intraperitoneally), the “IFN-α production induced by R848” value is listed as “attenuated”.
As for `CCN(CCO)CCCC(C)Nc1ccnc2cc(Cl)ccc12` (centres unmarked) [HCQ, hydroxychloroquine sulfate], the “Surviving mice fifteen weeks after the start of treatment” value in experiment [2] (10 mg/kg orally once a day, groups started with n=10, n=5, n=15 (HCQ)) was 12. In experiment [2] (per mouse), the Tubulo-interstitial inflammation entry was “Not found; also recorded: Found”. The score in experiment [2] (per mouse, histological score on a 6-point scale) is 1.74 and 0.70 and 0.00 and 1.64 and 0.30 and 2.58 and 0.07 and 0.14 and 3.14 and 0.37 and 2.19 and 0.18. For the same compound, the “Inside 0” value in experiment [2] (per mouse, of 100 glomeruli, endothelial cell swelling and cellular infiltration of capillary lumen, Grade 0) was 43 and 87 and 100 (2×) and 38 and 95 and 12 and 99 and 15 and 96 and 22 and 98. Also, the “Inside 1” value in experiment [2] (per mouse, of 100 glomeruli, endothelial cell swelling and cellular infiltration of capillary lumen, Grade 1) was 38 and 13 and 0 (2×) and 47 and 5 and 36 and 1 and 64 and 4 and 58 and 2. Moreover, the “Inside 2” value in experiment [2] (per mouse, of 100 glomeruli, endothelial cell swelling and cellular infiltration of capillary lumen, Grade 2) was 19 and 0 (7×) and 15 and 52 and 21 and 20. Also, in experiment [2] (per mouse, of 100 glomeruli, glomerulus with semilunar, Grade 0), the “Outside 0” value is 100 (10×) and 53 and 96. Also, the “Outside 1” value in experiment [2] (per mouse, of 100 glomeruli, glomerulus with semilunar, Grade 1) is 0 (10×) and 26 and 4. Further, the “Outside 2” value in experiment [2] (per mouse, of 100 glomeruli, glomerulus with semilunar, Grade 2) was 0 (11×) and 21. Also, in experiment [2] (per mouse, of 100 glomeruli, increase in cells and substrates in the mesangium region, Grade 0: None, 10 mg/kg orally, 15 weeks, 10 mg/kg), the Mes0 was 15 and 43 and 100 and 16 and 75 and 8 and 93 and 87 and 7 and 68 and 20 and 84. In experiment [2] (per mouse, of 100 glomeruli, mesangium region, Grade 1: Moderate or lower), the Mes1 is 72 and 57 and 0 and 81 and 25 and 66 and 7 and 13 and 46 and 31 and 43 and 16. In experiment [2] (per mouse, of 100 glomeruli, mesangium region, Grade 2: Moderate or higher), the Mes2 is 13 and 0 (6×) and 3 and 26 and 47 and 1 and 37. Further, the “Order of strength of the effect on IL-6 production” value in experiment [3] (FIG. 4) is “stronger for B2-24-4·HCl, B2-24-4-5A·HCOOH, and HCQ, in that order”. In addition, the “IL-6 production induced by gardiquimod stimulation” value in experiment [3] (0.1-50 μM, Gardiquimod 3 μg/mL, 24 hours) is given as “attenuated”.
In the case of belimumab, the Responder rate in experiment [4] is recorded as 54%.
